# Results taken from patent US7285567B2, “Halogenated benzamide derivatives” (Romark Laboratories, L.C., priority 2005, dated 2007).
# Read-outs that look alike come from different tables or passages of the source.
# Columns and labels:
# [1] = system: Herpes Simplex type 1: strain F1; assay: microbe, parasite or virus in culture; type: cell-based, Herpes Simplex virus type 1; conditions: Herpes Simplex type 1 strain F1, HEp-2 cell culture
# Hepatitis B Virus (HBV) = assay: HBV replication in 2.2.15 cell culture, 9-day assay; type: cell-based; conditions: for EC50 / EC90: Hepatitis B virus, 2.2.15 cells
# Method: Anti-Hepatitis B Virus (HBV) analyses and an assessment of cytotoxicity were performed in a 9-day assay in the chronically-producing HBV human hepatoblastoma cell line, 2.2.15, as previously described (Korba, B. E. & Gerin, J. L. Use of a standardized cell culture assay to assess activities of nucleosides analogues against hepatitis B virus replication. Antivir. Res. 19, 55-70 (1992)).
# Values presented (±standard deviations [S.D.]) were calculated by linear regression analysis using data combined from all treated cultures. S.D. were calculated using the standard error of regression generated from linear regression analyses (QuattroPro™). EC50, EC90=drug concentration at which a 2-fold, or a 10-fold depression of HBV DNA (relative to the average levels in untreated cultures), respectively, was observed, CC50=drug concentration at which a 2-fold depression of neutral red dye uptake (relative to the average levels in untreated cultures) was observed, The EC90 values were used for the calculation of the Selectivity Indexes [S.I.] since at least a 3-fold depression of HBV levels is typically required to achieve statistical significance in this assay system. HBV R.I.=intracellular HBV DNA replication intermediate.
# [2] = Cytotoxicity in AVA5 cells (neutral red dye uptake); type: cell-based, human; conditions: human, 2-fold depression of neutral red dye uptake
# Method: Anti-Hepatitis C Virus (HCV) analyses and an assessment of cytotoxicity were performed in a 3-day assay in the HCV replicon-containing human hepatoblastoma cell line, AVA5 (Okuse, C., Rinaudo, J. A., Farrar, K., Wells, F. & Korba, B. E. Enhancement of antiviral activity against hepatitis C virus in vitro by interferon combination therapy. Antivir. Res. 65, 23-34 (2005)) as previously described (Blight, K. J., Kolykhalov, A. A. & Rice, C. M. Efficient initiation of HCV RNA replication in cell culture. Science 290, 1972-1974 (2000)).
# Values presented (±standard deviations [S.D.]) were calculated by linear regression analysis using data combined from all treated cultures. S.D. were calculated using the standard error of regression generated from the linear regression analyses (QuattroPro™). EC50, EC90=drug concentration at which a 2-fold, or a 10-fold depression of HCV RNA (relative to the average levels in untreated cultures), respectively, was observed. CC50=drug concentration at which a 2-fold depression of neutral red dye uptake was observed relative to the average levels in untreated cultures. Selectivity index=CC50/EC50.
# [3] = system: H3N2 influenza virus, type A; assay: Multiple cycle CPE inhibition assay on MDCK cell monolayers; type: cell-based; conditions: 0% EMEM + Hepes + Trypsin
# Method: EC50 (μg/mL) values for 2-(acetolyloxy)-3-methyl-N-(5-bromo-2-thiazolyl)benzamide (RM4803), 2-(acetolyloxy)-3-methyl-N-(5-chloro-2-thiazolyl)benzamide (RM4804), and 2-(acetolyloxy)-3-methoxy-N-(5-bromo-2-thiazolyl)benzamide (RM4806), on Human Rhinovirus Type 39 (HRV-39), and H3N2 influenza virus, type A, using a multiple cycle CPE inhibition assay on OH-I Hela and Madin Darby Canine Kidney (MDCK) cell monolayers, respectively, were measured by microscopic and spectrophotometric methods. Pirodavir and Oseltamivir were included as positive controls.
smiles,measurement,setting,value
"CC(=O)Oc1c(C)cccc1C(=O)Nc1ncc(Br)s1 [RM-4803, 2-(acetolyloxy)-3-methyl-N-(5-bromo-2-thiazolyl)benzamide]",SI (selectivity index) = CC50/EC50,[1]; CC50 by MTT,3
same,EC50,[1]; Human alphaherpesvirus 1,5.6 µM
same,EC50,"Hepatitis B Virus (HBV); 2-fold depression of HBV DNA, read-out: Extracellular Virion DNA EC50",6.3 ± 0.7 µM
same,EC90,"Hepatitis B Virus (HBV); 10-fold depression of HBV DNA, read-out: Extracellular Virion DNA EC90",15 ± 1.1 µM
same,EC50,"Hepatitis B Virus (HBV); intracellular HBV DNA replication intermediate, 2-fold depression, read-out: Intracellular HBV R.I. EC50",12 ± 1.5 µM
same,EC90,"Hepatitis B Virus (HBV); intracellular HBV DNA replication intermediate, 10-fold depression, read-out: Intracellular HBV R.I. EC90",50 ± 5.5 µM
same,Selectivity Index R.I.,"Hepatitis B Virus (HBV); calculated with EC90 values (CC50/EC90), HBV R.I.",>20
same,Selectivity Index Virion,"Hepatitis B Virus (HBV); calculated with EC90 values (CC50/EC90), virion DNA",>67
same,CC50 at 3 day,[2],282 ± 21 µM
same,EC50,"[3]; microscopic reading, read-out: EC50, Microscopic",0.45 µg/mL
same,EC50,"[3]; spectrophotometric reading, read-out: EC50, Spectrophotometer",0.18 µg/mL
